Experimental findings from the supplement of paper PMC3493320 are described below.

This assay has as its system NCI-H295R. Nature of the assay: IC50 (antiproliferative, ATP content). The settings on record: 48 h. The gist of the method: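 Adrenocortical carcinoma cells (1500 per well) were seeded in serum-free ITS-supplemented DMEM in 1536-well plates and cultured overnight. Library compounds were then pin-transferred at 8 final concentrations from 0.6 nM to 46 µM, and plates were kept 48 h at 37 °C, 5% CO2. ATP was read as CellTiter-Glo luminescence after 20 min at room temperature and normalised to vehicle (0%) and positive control (100% inhibition). IC50 came from four-parameter logistic fits; compounds with no concentration response were recorded as above the top dose.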
As to `CCCC(=O)O[C@]1(C(=O)CO)CC[C@H]2[C@@H]3CCC4=CC(=O)CC[C@]4(C)[C@H]3[C@@H](O)C[C@@]21C`, the 50% inhibitory concentration (IC50) (in general, the concentration needed to halve the response being measured) was above 46 µM.
In turn, `O=C(O)CN(CCN(CC(=O)O)CC(=O)O)CCN(CC(=O)O)CC(=O)O` returned an IC50 above 46 µM.
Compound `C1CCc2nnnn2CC1` had a half-maximal inhibitory concentration (IC50) above 46 µM.
Then `CC[C@H](C)CCCCC(=O)N[C@@H](CCN)C(=O)N[C@H](C(=O)N[C@@H](CCN)C(=O)N[C@H]1CCNC(=O)[C@H]([C@@H](C)O)NC(=O)[C@H](CCN)NC(=O)[C@H](CCN)NC(=O)[C@H](CC(C)C)NC(=O)[C@@H](CC(C)C)NC(=O)[C@H](CCN)NC1=O)[C@@H](C)O.O=S(=O)(O)O`, with above 46 µM.
The compound `O=[C@@]([O-])[C@@H](CC3=CC=CC=C3)CC(N1C[C@@]2([H])[C@@](CCCC2)([H])C1)=O.O=[C@@]([O-])[C@@H](CC6=CC=CC=C6)CC(N4C[C@@]5([H])[C@@](CCCC5)([H])C4)=O.O.O.[Ca+2]` displayed a 50% inhibitory concentration (IC50) above 46 µM.
For `CCN(C)C(=O)Oc1cccc([C@H](C)N(C)C)c1.O=C(O)[C@@H](O)[C@H](O)C(=O)O`, the half-inhibitory concentration (IC50) is above 46 µM.
For the compound `C=C[C@]1(C)C[C@@H](OC(=O)CSCCN(CC)CC)[C@]2(C)[C@@H]3C(=O)CC[C@@]3(CC[C@@H]2C)[C@@H](C)[C@@H]1O`, the IC50 is above 46 µM.
Regarding `O=C3N1/C(=C(\CS[C@@H]1[C@@H]3NC(=O)Cc2ccccc2CN)CSc4nnnn4CC(O)=O)C(O)=O`, the IC50 is above 46 µM.
Then `CO/N=C(\C(=O)N[C@@H]1C(=O)N2C(C(=O)O)=C(C[N+]3(C)CCCC3)CS[C@H]12)c1csc(N)n1.Cl.O.[Cl-]`, with above 46 µM.
As for `O=C(CCCN1CCC(O)(c2ccc(Cl)cc2)CC1)c1ccc(F)cc1`, the figure is above 46 µM; as for `Cc1cccc(C)c1Nc1ncccc1C(=O)O`, above 46 µM; as for `[N-]=[N+]=CC(=O)OC[C@H](N)C(=O)O`, above 46 µM.
As to `CCCC(C)(COC(N)=O)COC(N)=O`, the IC50 was above 46 µM.
With `CCN(CC)CCSC(=O)C(c1ccccc1)c1ccccc1`, the IC50 was above 46 µM.
`C[C@H]1[C@H](NC(=O)C(=NOC(C)(C)C(=O)O)c2csc(N)n2)C(=O)N1S(=O)(=O)O` showed an IC50 above 46 µM.
The compound `O=C(N/N=C/c1ccc([N+](=O)[O-])o1)c1cc([N+](=O)[O-])cc([N+](=O)[O-])c1O` returned a half-maximal inhibitory concentration (IC50) above 46 µM.
For the compound `Nc1ccc(S(=O)(=O)Nc2ccc(Cl)nn2)cc1`, the IC50 is above 46 µM.
As for `CC[C@H](C)C(=O)O[C@H]1C[C@H](O)C=C2C=C[C@H](C)[C@H](CC[C@@H](O)C[C@@H](O)CC(=O)[O-])[C@H]21.[Na+]`, the figure is above 46 µM; as for `Cl.O=C(O)/C=C/c1ccc(Cn2ccnc2)cc1`, above 46 µM; as for `Cc1cc(OI)c(C(C)C)cc1-c1cc(C(C)C)c(OI)cc1C`, above 46 µM.
For the compound `NC(=O)c1cn(Cc2c(F)cccc2F)nn1`, the half-inhibitory concentration (IC50) is above 46 µM.
`CCc1ccc(S(=O)(=O)O)cc1` displayed an IC50 above 46 µM.
With `[H][C@@]23N(CCC4=C3NC5=C4C=CC(OC)=C5)C[C@@]1([H])C[C@@H](OC(COC6=CC=C(OC)C=C6)=O)[C@H](OC)[C@@H]([C@@](OC)=O)[C@]([H])1C2`, the IC50 is above 46 µM.
`O=C(O)CCNC(=O)c1ccccc1` had an IC50 above 46 µM.
For `O=C2C=1/N=C\NC=1N(C)C(=O)N2C`, the half-maximal inhibitory concentration (IC50) was above 46 µM.
Then `C=CCN=C=S`, with above 46 µM.
`CCN1C(=O)NC(c2ccccc2)C1=O` (centres undefined): the 50% inhibitory concentration (IC50) is above 46 µM.
As for `CNCCCCOc1ccccc1Cc1ccccc1`, the figure is above 46 µM.
`O=C(OCc1ccccc1)c1ccccc1` displayed an IC50 above 46 µM.
With `CN[C@@H]1[C@H](O[C@H]2[C@H](O[C@H]3[C@H](O)[C@@H](O)[C@H](NC(=N)N)[C@@H](O)[C@@H]3NC(=N)N)O[C@@H](C)[C@]2(O)CO)O[C@@H](CO)[C@H](O)[C@H]1O.CN[C@@H]1[C@H](O[C@H]2[C@H](O[C@H]3[C@H](O)[C@@H](O)[C@H](NC(=N)N)[C@@H](O)[C@@H]3NC(=N)N)O[C@@H](C)[C@]2(O)CO)O[C@@H](CO)[C@H](O)[C@H]1O.O=S(=O)(O)O.O=S(=O)(O)O.O=S(=O)(O)O`, the IC50 was above 46 µM.
As for `N[C@@H](CSCCCO)C(=O)O`, the concentration for half-maximal inhibition (IC50) was above 46 µM.
`O[C@@H]3C\C4=C\C[C@@H]2[C@H](CC[C@]1(C)C(=O)CC[C@H]12)[C@@]4(C)CC3` registered a concentration for half-maximal inhibition (IC50) above 46 µM.
On to `CC12CCC(CC1)C(C)(C)O2`, for which the 50% inhibitory concentration (IC50) was above 46 µM.
Then `O=C1C=CC([C@](N)2CC(C)=C3)=C(C[C@H]3/[C@]2=C\C)N1`, with above 46 µM; and `CCN1CCN(C(=O)N[C@@H](C(=O)N[C@@H]2C(=O)N3C(C(=O)[O-])=C(CSc4nnnn4C)CS[C@H]23)c2ccc(O)cc2)C(=O)C1=O.[Na+]`, with above 46 µM; and `CCC(Cc1c(I)cc(I)c(N)c1I)C(=O)O` (centres undefined), with above 46 µM.
Then `CCCCCCCCCCOc1cc2c(O)c(C(=O)OCC)cnc2cc1OCC`, with above 46 µM; and `O[C@H](C)[C@@H](N[C@]([C@@H]2C[C@@H](CCC)CN2C)=O)[C@@H]1[C@H](O)[C@H](O)[C@@H](O)[C@@H](SC)O1.Cl`, with above 46 µM; and `CN1CCN(C(c2ccccc2)c2ccccc2)CC1.Cl.Cl`, with above 46 µM.
In the case of `CC(C)(O/N=C(\C(=O)N[C@@H]1C(=O)N2C(C(=O)[O-])=C(C[n+]3ccccc3)CS[C@H]12)c1csc(N)n1)C(=O)O.O.O.O.O.O`, the IC50 is above 46 µM.
`CC(C)[N+](C)(C)CC(O)COc1cccc2ccccc12.[Cl-]` (centres undefined) showed a half-maximal inhibitory concentration (IC50) above 46 µM.
Compound `Cc1nc(-c2ccc(Cl)cc2)oc1COC(C)(C)C(=O)O` returned a 50% inhibitory concentration (IC50) above 46 µM.
With `CCOC(=O)c1cnc2cc(OCC(C)C)c(OCC(C)C)cc2c1O`, the IC50 is above 46 µM.
As for `Cl.F/C(COc1ccc2c(c1)[nH]c1ccccc12)=C1\CN2CCC1CC2`, the IC50 was above 46 µM.
`O=C(Nc1ccc(O)cc1)c1ccccc1O` showed an IC50 above 46 µM.
`N=C1NCCC(C2NC(=O)/C(=C/NC(N)=O)NC(=O)C(CNC(=O)CC(N)CCCN)NC(=O)C(CO)NC(=O)C(N)CNC2=O)N1.O=S(=O)(O)O` (centres undefined): the half-inhibitory concentration (IC50) was above 46 µM.
Take `O=C1C=C3[C@]([C@@]2(F)[C@@H](O)C[C@@]4(C)[C@](C[C@@]5([H])OC(C)(C)O[C@@]45[C@@](CO)=O)([H])[C@@]([H])2C[C@@H]3F)(C)C=C1`: the IC50 was above 46 µM.
For the compound `Cl.N[C@H]1C(O)O[C@H](CO)[C@@H](O)[C@@H]1O` (some centres undefined), the IC50 was above 46 µM.
For the compound `CNC(=O)[C@H](Cc1c[nH]c2ccccc12)NC(=O)[C@@H](CC(=O)NO)CC(C)C`, the IC50 was above 46 µM.
As for `O=C1C(C(O)=CC(O)=C2)=C2O[C@H]([C@](C=C5)=CC3=C5O[C@H](CO)[C@@H]([C@]4=CC(OC)=C(O)C=C4)O3)[C@H]1O`, the figure is above 46 µM; as for `CC(=O)OC[C@H]2O[C@@H](N1\N=C/C(=O)NC1=O)[C@H](OC(C)=O)[C@@H]2OC(C)=O`, above 46 µM; as for `CN(C)C(=O)Oc1cccc([N+](C)(C)C)c1.[Br-]`, above 46 µM.
`Cl.O=C1OC(CN2CCOCC2)CN1N=Cc1ccc([N+](=O)[O-])o1` (centres undefined) gave a half-inhibitory concentration (IC50) above 46 µM.
The compound `O=C1CCO1` had an IC50 above 46 µM.
As to `NC(Cc1ccccc1)C(=O)O` (centres undefined), the IC50 is above 46 µM.
In turn, `Oc1cc(Cl)c(Cl)cc1Cl` showed a concentration for half-maximal inhibition (IC50) above 46 µM.
Regarding `CC[NH+](CC)CCc1nc(-c2ccccc2)no1.O=C([O-])CC(O)(CC(=O)O)C(=O)O`, the IC50 is above 46 µM.
In turn, `CCN(CC)CCNC(=O)C1C(C)=NC(/C=C2/C(=O)Nc3ccc(F)cc32)=C1C.O=C(O)CC(O)C(=O)O` (centres undefined) yielded an IC50 above 46 µM.
Take `CCNCC(O)c1cccc(O)c1.Cl` (centres undefined): the half-inhibitory concentration (IC50) is above 46 µM.
Then `CN1CCN2c3ncccc3Cc3ccccc3C2C1` (centres undefined), with above 46 µM.
As for `CN(C)C=Nc1c(I)cc(I)c(CCC(=O)[O-])c1I.[Na+]`, the concentration for half-maximal inhibition (IC50) was above 46 µM.
`Oc1ccc(OCc2ccccc2)cc1` returned an IC50 above 46 µM.
As for `CC(=O)Nc1c(I)cc(I)c(C(=O)O)c1I`, the figure is above 46 µM; as for `O=C(O)C[CH2][Ge](=[O])[O][Ge](=[O])[CH2]CC(=O)O`, above 46 µM.
`N=C(N)NCC1COC2(CCCCC2)O1.N=C(N)NCC1COC2(CCCCC2)O1.O=S(=O)(O)O` (centres undefined) registered an IC50 above 46 µM.
As for `c1ccc(C2CC2)c(OCC2=NCCN2)c1`, the IC50 is above 46 µM.
The compound `CCN1CCc2nc(N)oc2CC1.Cl.Cl` gave an IC50 above 46 µM.
As for `O=C(NCNC(=O)NC1C(=O)NC(=O)N1CO)NC1C(=O)NC(=O)N1CO` (centres undefined), the concentration for half-maximal inhibition (IC50) is above 46 µM.
The compound `CCCN1CCC[C@H](c2cccc(O)c2)C1.Cl` displayed an IC50 above 46 µM.
Then `NC[C@H]1O[C@H](O[C@H]2[C@H](O)[C@@H](O[C@H]3O[C@H](CO)[C@@H](O)[C@H](N)[C@H]3O)[C@H](N)C[C@@H]2N)[C@H](O)[C@@H](O)[C@@H]1O.O=S(=O)(O)O`, with above 46 µM; and `OC[C@H]1O[C@@](CO)(O[C@H]2O[C@H](CO)[C@@H](O)[C@H](O)[C@H]2O)[C@@H](O)[C@@H]1O`, with above 46 µM.
On to `CC(=O)N[C@@H](CC(C)C)C(=O)O`, for which the 50% inhibitory concentration (IC50) was above 46 µM.
The compound `CCOC(=O)c1ncn2c1CN(C)C(=O)c1cc(F)ccc1-2` returned an IC50 above 46 µM.
As for `c1ccc(-c2nc[nH]c2-c2ccccc2)cc1`, the half-inhibitory concentration (IC50) is above 46 µM.
For the compound `C=CCc1ccc(O)c(OC)c1`, the IC50 was above 46 µM.
Then `CN1C2=CC(=O)C(=NNC(N)=O)C=C2CC1S(=O)(=O)[O-].[Na+]` (centres undefined), with above 46 µM.
As for `CC(O)CN(C)C` (centres undefined), the IC50 is above 46 µM.
Then `O=S(C1=CC=CC2=C1NC[C@H](C)C2)(N[C@@H](CCCNC(N)=N)C(N3[C@@H]([C@](O)=O)C[C@H](C)CC3)=O)=O`, with above 46 µM.
For `CCCCCN(CCCCC)C(=O)C(CCC(=O)[O-])NC(=O)c1ccc(Cl)c(Cl)c1.[Na+]` (centres undefined), the IC50 was above 46 µM.
